Results as given in US9125388B2, “Biological control” (Isis Innovation Limited, priority 1999, dated 2015).

Key:
[1] = tested on: (Female) Sxlp^e tTa^(A) × tRe lacZ^(III) (Male); assay: Reporter crosses at 25° C., embryos stained for lacZ; format: in vivo, Drosophila melanogaster
Description: As with “single chromosome crosses”, ten to fifteen virgin females homozygous for the tTA construct and five to ten young males homozygous for the tRe construct were placed on food containing or lacking a tetracycline supplement.

[2] = tested on: Sxl^pe-tTA, tRE-Msl-2^Nopu on the X chromosome; assay: Recombinant chromosome experiments: parents raised on supplement, progeny on normal food, adults by sex (25, 18 or 29° C.); format: in vivo, Drosophila melanogaster; settings: for Female progeny per daily vial / Female progeny Total / Male progeny Total: 25° C.; for Female progeny per daily vial: Day 1-12 on tetracycline-free food; for Female progeny Total / Male progeny Total: Day 1-12 total
[3] = tested on: Sxlp^e tTa, tRe Msl-1^Mpu on the X chromosome; assay: as above; format: in vivo, Drosophila melanogaster
[4] = tested on: Yp3 tTa, tRe Msl-2^Nopu on the 2nd chromosome; assay: as above; format: in vivo, Drosophila melanogaster
bnk-tTa × tRe-Nipp1Dm = assay: Tc-repressible lethality using an embryo-specific promoter (Table 2), adult progeny by sex; format: in vivo, Drosophila melanogaster; settings: embryos laid on this food for 9 days
Description: Flies were reared on standard yeast/cornmeal/agar food with a yeast concentration of 45-50 gl^−1. Tc-containing food was made to the same recipe with the addition of tetracycline hydrochloride (Sigma-Aldrich) solution to the appropriate final concentration.
As ectopic Ras64B^V12 apparently lacks embryonic toxicity under the conditions we are using, we placed a different toxic gene under the control of tRe. We chose to use Nipp1Dm, a Drosophila homolog of mammalian NIPP-1, a nuclear inhibitor of protein phosphatase type 1 (Beullens et al., (1992), J. Biol. Chem. 267, 16538-16544; Van Eynde et al., (1995), J Biol Chem 270, 28068-74). NIPP1 has several advantages as a “killer gene” in this system. Flies carrying homozygous insertions of bnk-tTa or tRe-Nipp1 were crossed to each other. […] Furthermore, F1 survival was not affected by the presence or absence of Tc in the media on which the F1 were raised. We have therefore constructed an efficient dominant lethal genetic system repressible by parental dietary Tc.
Males homozygous for bnk-tTa were mated with females homozygous for either tRe-Ras64B^V12 or tRe-Nipp1Dm. These flies were raised on media lacking Tc, but before mating were placed on food containing various concentrations of Tc. They were allowed to lay embryos on this food for 9 days, and then the parents were removed. Their adult progeny of each sex were counted.

[5] = tested on: Hsp26 tTa^(A) × tRe Msl-2^Nopu(A, B,); assay: Single chromosome crosses at 25° C., adult progeny by sex
[6] = parents raised on Tet. 0.1 μg/ml
[7] = parents raised on Tet. 20 μg/ml
[8] = parents raised on Tet. 100 μg/ml
[9] = parents raised on Tet. 500 μg/ml
[10] = parents raised on Tet. 1000 μg/ml
[11] = parents raised on Tet. 2000 μg/ml
[12] = parents raised on tetracycline 0.1 μg/ml, 18° C.
[13] = parents raised on tetracycline 0.1 μg/ml, 29° C.
[14] = parents raised on tetracycline 1 μg/ml, 18° C.
[15] = parents raised on tetracycline 1 μg/ml, 29° C.
[16] = parents raised on tetracycline 5 μg/ml, 18° C.
[17] = parents raised on tetracycline 5 μg/ml, 29° C.
[18] = parents on food containing Tc 0.1 μg/ml
[19] = parents on food containing Tc 1.0 μg/ml

CN(C)[C@@H]1C(O)=C(C(N)=O)C(=O)[C@@]2(O)C(O)=C3C(=O)c4c(O)cccc4[C@@](C)(O)[C@H]3C[C@@H]12 [Tetracycline, tetracycline]
LacZ negative Total ([1]; Tetracycline 0.1 μg/ml in food): 709 | LacZ positive Total ([1]; Tetracycline 0.1 μg/ml in food): 0 | LacZ negative Total ([1]; Tetracycline 1 μg/ml in food): 739 | LacZ positive Total ([1]; Tetracycline 1 μg/ml in food): 0 | LacZ negative Total ([1]; Tetracycline 5 μg/ml in food): 651 | LacZ positive Total ([1]; Tetracycline 5 μg/ml in food): 0 | Female progeny per daily vial [2, 6]: 0 | Female progeny Total [2, 6]: 0 | Male progeny Total [2, 6]: 1464 | Female progeny per daily vial ([2]; parents raised on Tet. 1 μg/ml): 0 | Female progeny Total ([2]; parents raised on Tet. 1 μg/ml): 0 | Male progeny Total ([2]; parents raised on Tet. 1 μg/ml): 1527 | Female progeny per daily vial ([2]; parents raised on Tet. 5 μg/ml): 0 | Female progeny Total ([2]; parents raised on Tet. 5 μg/ml): 0 | Male progeny Total ([2]; parents raised on Tet. 5 μg/ml): 1535 | Female progeny per daily vial [2, 7]: 0 | Female progeny Total [2, 7]: 0 | Male progeny Total [2, 7]: 1243 | Female progeny per daily vial [2, 8]: 0 | Female progeny Total [2, 8]: 0 | Male progeny Total [2, 8]: 1483 | Female progeny Total [2, 9]: 2 | Male progeny Total [2, 9]: 1625 | Female progeny Total [2, 10]: 29 | Male progeny Total [2, 10]: 1402 | Female progeny Total [2, 11]: 44 | Male progeny Total [2, 11]: 1543 | Female progeny emerging as adults [2, 12]: 6 | Male progeny emerging as adults [2, 12]: 695 | Female progeny emerging as adults [2, 13]: 0 | Male progeny emerging as adults [2, 13]: 682 | Female progeny emerging as adults [2, 14]: 8 | Male progeny emerging as adults [2, 14]: 816 | Female progeny emerging as adults [2, 15]: 0 | Male progeny emerging as adults [2, 15]: 804 | Female progeny emerging as adults [2, 16]: 8 | Male progeny emerging as adults [2, 16]: 785 | Female progeny emerging as adults [2, 17]: 0 | Male progeny emerging as adults [2, 17]: 648 | Female progeny emerging as adults [3, 12]: 8 | Male progeny emerging as adults [3, 12]: 840 | Female progeny emerging as adults [3, 13]: 0 | Male progeny emerging as adults [3, 13]: 732 | Female progeny emerging as adults [3, 14]: 5 | Male progeny emerging as adults [3, 14]: 927 | Female progeny emerging as adults [3, 15]: 0 | Male progeny emerging as adults [3, 15]: 771 | Female progeny emerging as adults [3, 16]: 8 | Male progeny emerging as adults [3, 16]: 837 | Female progeny emerging as adults [3, 17]: 0 | Male progeny emerging as adults [3, 17]: 816 | Female progeny emerging as adults [4, 12]: 8 | Male progeny emerging as adults [4, 12]: 1152 | Female progeny emerging as adults [4, 13]: 0 | Male progeny emerging as adults [4, 13]: 765 | Female progeny emerging as adults [4, 14]: 12 | Male progeny emerging as adults [4, 14]: 1122 | Female progeny emerging as adults [4, 15]: 0 | Male progeny emerging as adults [4, 15]: 702 | Female progeny emerging as adults [4, 16]: 3 | Male progeny emerging as adults [4, 16]: 1225 | Female progeny emerging as adults [4, 17]: 0 | Male progeny emerging as adults [4, 17]: 773 | Females, adult progeny (bnk-tTa × tRe-Nipp1Dm; [18]): 58 | Males, adult progeny (bnk-tTa × tRe-Nipp1Dm; [18]): 60 | Females, adult progeny (bnk-tTa × tRe-Nipp1Dm; [19]): 82 | Males, adult progeny (bnk-tTa × tRe-Nipp1Dm; [19]): 78 | Female progeny Total ([5]; Tetracycline 0.1 μg/ml in food): 159 | Male progeny Total ([5]; Tetracycline 0.1 μg/ml in food): 159 | Female progeny Total ([5]; Tetracycline 1 μg/ml in food): 135 | Male progeny Total ([5]; Tetracycline 1 μg/ml in food): 122 | Female progeny Total ([5]; Tetracycline 5 μg/ml in food): 124 | Male progeny Total ([5]; Tetracycline 5 μg/ml in food): 120
